Here are results for 20 compounds from article PMC6556873, “Rapid Covalent-Probe Discovery by Electrophile-Fragment Screening” (Journal of the American Chemical Society, 2019).

Data set [1] is described as follows: in vitro. Also on record: species or system HB2, HEK293. To be noted: human, ccd841 cells.
In data set [2] the target is T1, OTUB2 (OTUB2A) (Homo sapiens, UniProt Q96DC9).
T1 construct: full length residues 1-234, E. coli BL21(DE3)-R3, His tag removed by TEV, construct 27312 Da
T1 sequence (Q96DC9 1-234): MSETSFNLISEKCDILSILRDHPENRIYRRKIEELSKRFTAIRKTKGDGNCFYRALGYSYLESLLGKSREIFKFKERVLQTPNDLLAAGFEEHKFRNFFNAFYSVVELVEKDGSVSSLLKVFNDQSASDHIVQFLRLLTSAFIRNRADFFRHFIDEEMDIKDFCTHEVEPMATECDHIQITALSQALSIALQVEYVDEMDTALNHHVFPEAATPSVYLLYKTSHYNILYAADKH
Also noted: Intact protein LC/MS covalent labelling, fragments in pools of five, 200 uM each, 4 °C. To be noted: 24 h, 4 °C, pool of five; 200 µM; covalent.

For data set [3], the target named is T2, BSA (Bos taurus, UniProt P02769).
T2 construct: gene ALB
T2 sequence (P02769 whole entry): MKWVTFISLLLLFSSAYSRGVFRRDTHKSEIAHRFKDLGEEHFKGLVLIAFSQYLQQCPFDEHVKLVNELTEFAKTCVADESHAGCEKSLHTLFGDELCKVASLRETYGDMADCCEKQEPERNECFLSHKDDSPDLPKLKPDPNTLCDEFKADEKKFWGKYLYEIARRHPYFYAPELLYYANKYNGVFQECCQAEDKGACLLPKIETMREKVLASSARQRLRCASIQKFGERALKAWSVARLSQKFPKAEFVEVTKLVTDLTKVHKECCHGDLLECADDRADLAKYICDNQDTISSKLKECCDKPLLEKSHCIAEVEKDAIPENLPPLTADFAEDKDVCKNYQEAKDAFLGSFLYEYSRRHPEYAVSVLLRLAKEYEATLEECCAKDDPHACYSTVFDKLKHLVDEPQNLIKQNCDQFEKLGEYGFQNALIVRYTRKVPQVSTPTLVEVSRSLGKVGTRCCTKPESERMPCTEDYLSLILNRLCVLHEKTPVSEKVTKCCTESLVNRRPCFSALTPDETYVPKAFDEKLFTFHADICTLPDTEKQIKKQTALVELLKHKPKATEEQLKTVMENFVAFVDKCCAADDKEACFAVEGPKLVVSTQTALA
Also noted: Intact protein LC/MS covalent labelling, fragments in pools of five, 200 uM each, 4 °C. To be noted: 24 h, 4 °C, pool of five; 200 µM; covalent.

Data set [4] deals with T3, NNMT (hNNMT) (Homo sapiens, UniProt P40261).
T3 construct: wild type, N-terminal His6 tag kept (no cleavage described), E. coli, construct 31248 Da
T3 sequence (P40261 1-264): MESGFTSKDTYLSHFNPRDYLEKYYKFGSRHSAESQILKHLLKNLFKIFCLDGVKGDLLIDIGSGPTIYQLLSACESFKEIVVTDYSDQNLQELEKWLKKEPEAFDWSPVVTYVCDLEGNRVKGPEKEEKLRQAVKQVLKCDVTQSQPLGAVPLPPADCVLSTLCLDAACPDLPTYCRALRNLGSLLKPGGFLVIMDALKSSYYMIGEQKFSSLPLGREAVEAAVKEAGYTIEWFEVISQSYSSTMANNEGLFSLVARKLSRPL
Also on record: Intact protein LC/MS covalent labelling, fragments in pools of five, 200 uM each, 4 °C. To be noted: 24 h, 4 °C, pool of five; 200 µM; covalent.

Data set [5] addresses T4, NUDT7 (Homo sapiens, UniProt P0C024).
T4 construct: residues 14-235, E. coli, pNIC28-Bsa4, N-terminal His6 tag removed by TEV, construct 26672 Da
Also on record: Intact protein LC/MS covalent labelling, fragments in pools of five, 200 uM each, 4 °C. The following applies: 24 h, 4 °C, pool of five; 200 µM; covalent.

Data set [6] deals with T5, PCAF (Homo sapiens, UniProt Q92831).
T5 construct: gene KAT2B
T5 sequence (Q92831 whole entry): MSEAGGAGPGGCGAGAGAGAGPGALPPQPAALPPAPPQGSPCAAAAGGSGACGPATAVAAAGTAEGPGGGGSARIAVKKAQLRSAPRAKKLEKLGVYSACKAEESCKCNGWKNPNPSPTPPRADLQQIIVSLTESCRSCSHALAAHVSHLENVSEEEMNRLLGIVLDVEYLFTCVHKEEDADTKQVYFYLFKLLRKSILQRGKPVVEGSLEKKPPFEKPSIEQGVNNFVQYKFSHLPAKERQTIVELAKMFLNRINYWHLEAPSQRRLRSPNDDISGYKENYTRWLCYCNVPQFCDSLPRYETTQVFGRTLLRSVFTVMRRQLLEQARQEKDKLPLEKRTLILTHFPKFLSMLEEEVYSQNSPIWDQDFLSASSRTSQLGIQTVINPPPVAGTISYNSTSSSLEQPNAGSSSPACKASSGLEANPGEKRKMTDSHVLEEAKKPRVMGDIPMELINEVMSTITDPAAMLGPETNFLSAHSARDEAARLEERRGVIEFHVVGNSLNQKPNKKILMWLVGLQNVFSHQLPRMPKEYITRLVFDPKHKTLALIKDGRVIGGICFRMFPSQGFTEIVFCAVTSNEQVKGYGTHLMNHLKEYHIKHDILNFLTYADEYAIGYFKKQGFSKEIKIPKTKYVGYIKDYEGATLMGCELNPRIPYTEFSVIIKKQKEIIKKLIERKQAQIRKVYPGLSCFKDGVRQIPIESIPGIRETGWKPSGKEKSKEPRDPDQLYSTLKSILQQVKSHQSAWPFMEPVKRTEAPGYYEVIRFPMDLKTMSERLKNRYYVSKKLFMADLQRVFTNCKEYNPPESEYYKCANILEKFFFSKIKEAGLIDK
Also noted: Intact protein LC/MS covalent labelling, fragments in pools of five, 200 uM each, 4 °C. The following applies: 24 h, 4 °C, pool of five; 200 µM; covalent.

Data set [7] is described as follows: in vitro. Also noted: species or system HB2, CCD841. To be noted: human, hek293 cells.
The nature of data set [8]: in vitro. Also noted: species or system CCD841, HEK293. The following applies: human, hb2 cells, read-out: HB-2 Cells Viability (%).

Where two headings read alike, the source gives them in different places.

T4 sequence (P0C024 14-235): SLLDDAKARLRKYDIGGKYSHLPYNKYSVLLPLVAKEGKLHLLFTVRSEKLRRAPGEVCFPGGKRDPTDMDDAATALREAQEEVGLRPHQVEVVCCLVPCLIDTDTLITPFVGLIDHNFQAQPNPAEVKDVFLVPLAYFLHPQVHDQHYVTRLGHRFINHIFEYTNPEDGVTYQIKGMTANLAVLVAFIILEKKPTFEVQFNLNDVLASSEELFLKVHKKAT

As for `O=C(CCl)NC(=O)NCC1COc2ccccc2O1` (stereo not drawn) [PCM-0102092], the values for the viability at 48 h, 10 µM in data set [1], in data set [7] and in data set [8] were 33.4%, 7.6% and 49%, respectively. This compound also had an OTUB2 in data set [2] of 0. Besides, in data set [3], the BSA is recorded as 0. Also, in data set [4], the NNMT came to 0. In data set [5], this compound displayed an NUDT7 of 0. Moreover, the PCAF in data set [6] worked out at 0.
With `Cc1csc(CC(=O)NNC(=O)CCl)n1.Cl` [PCM-0102095], the viability at 48 h, 10 µM amounted to 79% in data set [1], 81.9% in data set [7] and 93.3% in data set [8]. Further, in data set [2], the OTUB2 is reported as 0.51. In addition, the BSA in data set [3] is given as 0. In data set [4], this compound came in with an NNMT of 0. For the same compound, the NUDT7 in data set [5] came out at 0. The compound further displayed a PCAF in data set [6] of 0.
Consider `O=C(CCl)NC(=O)NC1CCS(=O)(=O)C1` (stereo not drawn) [PCM-0102100], for which the viability at 48 h, 10 µM in data set [1] was 106%; in data set [7] it was 99.5%; in data set [8] it was 101%. Besides, the OTUB2 in data set [2] is listed as 0.09. The BSA in data set [3] is 0. In data set [4], this compound returned an NNMT of 0. This compound had an NUDT7 in data set [5] of 0. Also, in data set [6], the PCAF stood at 0.
For `CNC(=O)c1cccc(NC(=O)CCl)c1` [PCM-0102113], the viability at 48 h, 10 µM in data set [1] was determined as 55%; in data set [7] it was 1.7%; in data set [8] it was 25.2%. The OTUB2 in data set [2] was determined as 0. The compound also had a BSA in data set [3] of 0. Moreover, in data set [4], the NNMT came out at 0. Besides, the NUDT7 in data set [5] stood at 0. In addition, the PCAF in data set [6] is given as 0.
On to `O=C(CCl)NC12CC3CC(CC(C3)C1)C2` [PCM-0102118], for which the viability at 48 h, 10 µM was determined as 76.1% in data set [1], 71.1% in data set [7] and 83% in data set [8]. In addition, the OTUB2 in data set [2] was 0. The compound further had a BSA in data set [3] of 0. The compound also had an NNMT in data set [4] of 0.23. The same compound displayed an NUDT7 in data set [5] of 0. The same compound gave a PCAF in data set [6] of 0.
Turning to `Cc1ccc(NC(=O)NC(=O)CCl)cc1C` [PCM-0102119], the results for the viability at 48 h, 10 µM in data set [1], in data set [7] and in data set [8] were 63.5%, 63.3% and 48.8%, respectively. In addition, in data set [2], the OTUB2 amounted to 0. The compound further registered a BSA in data set [3] of 0. For the same compound, in data set [4], the NNMT is reported as 0.57. This compound yielded an NUDT7 in data set [5] of 0.09. This compound also displayed a PCAF in data set [6] of 0.
Consider `CC(NC(=O)CCl)c1ccccc1` (stereo not drawn) [PCM-0102128], for which the figures for the viability at 48 h, 10 µM in data set [1], in data set [7] and in data set [8] were 85.5%, 84.3% and 84.4%, respectively. In data set [2], this compound showed an OTUB2 of 0.42. Also, the BSA in data set [3] came out at 0. In data set [4], this compound returned an NNMT of 0. This compound yielded an NUDT7 in data set [5] of 0.13. The compound also came in with a PCAF in data set [6] of 0.
With `O=C(CCl)Nc1ccccc1N1CCCC1` [PCM-0102135], the viability at 48 h, 10 µM in data set [1] turned out to be 95%; in data set [7] it was 91.3%; in data set [8], 98.5%. This compound also yielded an OTUB2 in data set [2] of 0. The same compound had a BSA in data set [3] of 0. In addition, in data set [4], the NNMT was found to be 0. This compound also displayed an NUDT7 in data set [5] of 0. The PCAF in data set [6] is given as 0.
Consider `O=C(CCl)NC1CCS(=O)(=O)C1` (stereo not drawn) [PCM-0102138], for which the results for the viability at 48 h, 10 µM in data set [1], in data set [7] and in data set [8] were 84.2%, 113% and 92.6%, respectively. This compound registered an OTUB2 in data set [2] of 0. Further, the BSA in data set [3] worked out at 0. Further, in data set [4], the NNMT amounted to 0. The compound also returned an NUDT7 in data set [5] of 0. Moreover, in data set [6], the PCAF is listed as 0.
As for `O=C1CN(C(=O)CCl)C2(CCCCC2)C(=O)N1` [PCM-0102139], the viability at 48 h, 10 µM turned out to be 95.8% in data set [1], 96.3% in data set [7] and 98.9% in data set [8]. For the same compound, the OTUB2 in data set [2] is given as 0.05. Besides, the NNMT in data set [4] turned out to be 0. The compound further gave an NUDT7 in data set [5] of 0.22. Also, in data set [6], the PCAF worked out at 0.
For the compound `C=CC(=O)N1CCCC1c1cccc2c1OCCO2` (stereo not drawn) [PCM-0102489], the viability at 48 h, 10 µM in data set [1] is 99.1%; in data set [7] it was 89.9%; in data set [8] it was 96.3%. Besides, in data set [2], the OTUB2 amounted to 0. The NNMT in data set [4] was 0. Moreover, the NUDT7 in data set [5] amounted to 0. For the same compound, in data set [6], the PCAF was 0.
`O=C(CCl)N1CCC(Cc2ccccc2)CC1` [PCM-0102492] yielded an OTUB2 in data set [2] of 0.18. In addition, the BSA in data set [3] came out at 0. In data set [4], this compound came in with an NNMT of 0.51. The NUDT7 in data set [5] is reported as 0.18. Besides, in data set [6], the PCAF is 0.
Regarding `C=CC(=O)N1CCC(c2nc3cccc(C)c3o2)CC1` [PCM-0102530], the viability at 48 h, 10 µM was 101% in data set [1], 94% in data set [7] and 108% in data set [8]. Further, the OTUB2 in data set [2] is listed as 0. The same compound displayed an NNMT in data set [4] of 0. In data set [5], this compound yielded an NUDT7 of 0. In data set [6], this compound displayed a PCAF of 0.
Consider `CC1CCC(N(C(=O)CCl)C2CC2)CC1` (stereo not drawn) [PCM-0102792], for which the viability at 48 h, 10 µM in data set [1] was determined as 8.8%; in data set [7], 6.8%; in data set [8], 11.4%. In addition, the BSA in data set [3] was determined as 0. The compound further gave an NNMT in data set [4] of 0.21. This compound displayed an NUDT7 in data set [5] of 0.13. The compound further returned a PCAF in data set [6] of 0.
For the compound `C=CC(=O)Nc1cccc(OC)c1` [PCM-0102800], the OTUB2 in data set [2] amounted to 0. Further, the BSA in data set [3] is given as 0. Moreover, the NNMT in data set [4] was 0. For the same compound, in data set [5], the NUDT7 stood at 0. In data set [6], the PCAF is listed as 0.
In the case of `O=C(CCl)Nc1ccc(N2CCCCC2)nc1` [PCM-0102812], the viability at 48 h, 10 µM in data set [1] was determined as 61.5%; in data set [7], 4.4%; in data set [8], 32.5%. The compound further showed a BSA in data set [3] of 0. The NNMT in data set [4] stood at 0.53. The compound further came in with an NUDT7 in data set [5] of 0.14. The same compound yielded a PCAF in data set [6] of 0.
The compound `O=C(CCl)Nc1ccc2c(c1)NC(=O)CO2` [PCM-0102890] returned an OTUB2 in data set [2] of 0.32. The same compound showed a BSA in data set [3] of 0. In data set [4], this compound registered an NNMT of 0.22. The same compound registered an NUDT7 in data set [5] of 0.08. In data set [6], this compound returned a PCAF of 0.
Compound `C=CC(=O)Nc1cccc(F)c1` [PCM-0102922] returned an OTUB2 in data set [2] of 0. The BSA in data set [3] was 0.19. In data set [4], this compound yielded an NNMT of 0. The compound also came in with an NUDT7 in data set [5] of 0. The same compound returned a PCAF in data set [6] of 0.
Regarding `N#Cc1ccc(CNC(=O)CCl)cc1` [PCM-0102946], the figures for the viability at 48 h, 10 µM in data set [1], in data set [7] and in data set [8] were 74.8%, 88.1% and 85%, respectively. In data set [2], this compound displayed an OTUB2 of 0.35. In addition, in data set [4], the NNMT came to 0.23. In data set [5], this compound returned an NUDT7 of 0. Besides, the PCAF in data set [6] came to 0.
On to `O=C(CCl)N1CCN(C(=O)C2CC2)CC1` [PCM-0102970], for which the results for the viability at 48 h, 10 µM in data set [1], in data set [7] and in data set [8] were 72.5%, 66.6% and 83.8%, respectively. The compound also returned an OTUB2 in data set [2] of 0. Also, the NNMT in data set [4] is 0. This compound had an NUDT7 in data set [5] of 0.07. In addition, the PCAF in data set [6] is 0.

By viability is commonly meant a read-out of living cells in per cent, often relative to untreated cells.
